Patent US8263598B2, “Substituted sulfonamide compounds” (Gruenenthal GmbH, priority 2008, dated 2012)

Columns and labels:
[1] = target: T1, human B1R receptor (hB1R) (Homo sapiens, UniProt P46663); test: FLIPR Ca2+ assay on human bradykinin 1 receptor (CHO K1 hB1R cells); assay type: cell-based; conditions: test substance 10 μM; CHO K1 cells with human B1R gene; agonist Lys-Des-Arg9-bradykinin 0.5 nM; compared to maximum achievable inhibition
T1 construct: host or cells: CHO K1 cells
T1 sequence (P46663 1-353): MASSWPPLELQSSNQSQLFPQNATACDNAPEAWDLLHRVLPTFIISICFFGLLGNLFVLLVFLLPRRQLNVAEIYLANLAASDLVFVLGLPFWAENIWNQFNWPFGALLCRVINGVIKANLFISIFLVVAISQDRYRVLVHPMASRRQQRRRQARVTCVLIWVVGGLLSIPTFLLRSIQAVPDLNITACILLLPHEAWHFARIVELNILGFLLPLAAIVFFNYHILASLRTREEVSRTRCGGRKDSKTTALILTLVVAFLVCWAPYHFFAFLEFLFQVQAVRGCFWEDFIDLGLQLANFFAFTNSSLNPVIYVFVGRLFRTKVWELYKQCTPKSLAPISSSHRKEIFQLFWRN
Procedure, shortened: (§1)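 CHO K1 cells stably expressing human or rat B1R were loaded with Fluo-4 and tested at 10 μM compound. Ca²⁺ signal was read in FLIPR as % activation versus agonist. After 10 min, agonist was added (hB1R: Lys-Des-Arg9-bradykinin 0.5 nM; rB1R: Des-Arg9-bradykinin 100 nM), and % inhibition was taken relative to maximum achievable inhibition.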

[2] = target: T2, B1R receptor of rats (rB1R) (Rattus norvegicus, UniProt P97583); test: FLIPR Ca2+ assay on rat bradykinin 1 receptor (CHO K1 rB1R cells); assay type: cell-based; conditions: test substance 10 μM; CHO K1 cells with B1R gene of rats; agonist Des-Arg9-bradykinin 100 nM; compared to maximum achievable inhibition
T2 construct: host or cells: CHO K1 cells
T2 sequence (P97583 1-337): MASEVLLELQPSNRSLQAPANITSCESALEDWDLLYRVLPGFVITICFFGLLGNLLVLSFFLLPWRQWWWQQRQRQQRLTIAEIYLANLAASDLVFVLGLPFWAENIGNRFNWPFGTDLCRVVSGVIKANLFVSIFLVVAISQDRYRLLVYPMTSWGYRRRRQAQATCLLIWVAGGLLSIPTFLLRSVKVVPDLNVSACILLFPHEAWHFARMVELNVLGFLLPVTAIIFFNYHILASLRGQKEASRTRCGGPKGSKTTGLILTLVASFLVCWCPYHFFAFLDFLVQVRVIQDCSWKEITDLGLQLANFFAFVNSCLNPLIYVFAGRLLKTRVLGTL
Procedure, shortened: as §1

Molecule	inhibition at 10 µM [1] [%]	inhibition at 10 µM [2] [%]	hB1R [10 μM] % Inhibition [1] [%]	rB1R [10 μM] % Inhibition [2] [%]
COc1cc(C)c(S(=O)(=O)N(C)CCOCC(=O)N2CCn3cccc3C2C(C)(C)C)c(C)c1C (centres unmarked) [Example 79, N-(2-(2-(1-tert-butyl-3,4-dihydropyrrolo[1,2-a]pyrazin-2(1H)-yl)-2-oxoethoxy)ethyl)-4-methoxy-N,2,3,6-tetramethylbenzenesulfonamide]	101	100		
COc1c(C)cc(S(=O)(=O)N(C)CCOCC(=O)N2CCn3cccc3C2c2cccc(F)c2)c(C)c1C (centres unmarked) [Example 35, N-(2-(2-(1-(3-fluorophenyl)-3,4-dihydropyrrolo[1,2-a]pyrazin-2(1H)-yl)-2-oxoethoxy)ethyl)-4-methoxy-N,2,3,5-tetramethylbenzenesulfonamide]	81	48		
O=C(CC(NS(=O)(=O)c1ccc2ccccc2c1)c1ccccc1)N1CCn2c(CN3CCCC3)ccc2C1 (centres unmarked) [Example 8, N-(3-oxo-1-phenyl-3-(6-(pyrrolidin-1-ylmethyl)-3,4-dihydropyrrolo[1,2-a]pyrazin-2(1H)-yl)propyl)naphthalene-2-sulfonamide]	95	42		
COc1cc(C)c(S(=O)(=O)N(C)CCOCC(=O)N2CCn3c(CCCN4CCN(C)CC4)ccc3C2)c(C)c1 [Example 12, 4-methoxy-N,2,6-trimethyl-N-(2-(2-(6-(3-(4-methylpiperazin-1-yl)propyl)-3,4-dihydropyrrolo[1,2-a]pyrazin-2(1H)-yl)-2-oxoethoxy)ethyl)benzenesulfonamide]	97	100		
COc1cc(C)c(S(=O)(=O)N(CCOCC(=O)N2CCn3cccc3C2c2cccnc2)CC(C)C)c(C)c1C (centres unmarked) [Example 19, N-isobutyl-4-methoxy-2,3,6-trimethyl-N-(2-(2-oxo-2-(1-(pyridin-3-yl)-3,4-dihydropyrrolo[1,2-a]pyrazin-2(1H)-yl)ethoxy)ethyl)benzenesulfonamide]	101	98		
COc1c(C)cc(S(=O)(=O)N(C)CCOCC(=O)N2CCn3cccc3C2c2ccc(F)c(F)c2)c(C)c1C (centres unmarked) [Example 33, N-(2-(2-(1-(3,4-difluorophenyl)-3,4-dihydropyrrolo[1,2-a]pyrazin-2(1H)-yl)-2-oxoethoxy)ethyl)-4-methoxy-N,2,3,5-tetramethylbenzenesulfonamide]	71	66		
COc1cc(C)c(S(=O)(=O)N(C)CCOCC(=O)N2CCn3cccc3C2c2ccc(Cl)nc2)c(C)c1 (centres unmarked) [Example 55, N-(2-(2-(1-(6-chloropyridin-3-yl)-3,4-dihydropyrrolo-[1,2-a]pyrazin-2(1H)-yl)-2-oxoethoxy)ethyl)-4-methoxy-N,2,6-trimethylbenzenesulfonamide]	100	99		
COc1cc(C)c(S(=O)(=O)N(CCOCC(=O)N2CCn3cccc3C2c2ccc(Cl)nc2)Cc2ccccc2)c(C)c1C (centres unmarked) [Example 42, N-benzyl-N-(2-(2-(1-(6-chloropyridin-3-yl)-3,4-dihydropyrrolo[1,2-a]pyrazin-2(1H)-yl)-2-oxoethoxy)ethyl)-4-methoxy-2,3,6-trimethylbenzenesulfonamide]	33	91		
N-benzyl-N-(2-(2-(6-((dimethylamino)methyl)-1-ethyl-3,4-dihydropyrrolo[1,2-a]pyrazin-2(1H)-yl)-2-oxoethyl)ethyl)-4-methoxy-2,3,6-trimethylbenzenesulfonamide [Example 122]			101	101
COc1c(C)cc(S(=O)(=O)N(C)CCOCC(=O)N2CCn3cccc3C2c2ccc(Cl)nc2)c(C)c1C (centres unmarked) [Example 30, N-(2-(2-(1-(6-chloropyridin-3-yl)-3,4-dihydropyrrolo[1,2-a]pyrazin-2(1H)-yl)-2-oxoethoxy)ethyl)-4-methoxy-N,2,3,5-tetramethylbenzenesulfonamide]	98	76		
COc1cc(C)c(S(=O)(=O)N(C)CCOCC(=O)N2CCn3cccc3C2C)c(C)c1C (centres unmarked) [Example 80, 4-methoxy-N,2,3,6-tetramethyl-N-(2-(2-(1-methyl-3,4-dihydropyrrolo[1,2-a]pyrazin-2(1H)-yl)-2-oxoethoxy)ethyl)benzenesulfonamide]	99	97		
COc1cc(C)c(S(=O)(=O)N(C)CCOCC(=O)N2CCn3cccc3C2c2cccc(F)c2)c(C)c1C (centres unmarked) [Example 87, N-(2-(2-(1-(3-fluorophenyl)-3,4-dihydropyrrolo[1,2-a]pyrazin-2(1H)-yl)-2-oxoethoxy)ethyl)-4-methoxy-N,2,3,6-tetramethylbenzenesulfonamide]	101	100		

Second part, the molecule after the results:

inhibition at 10 µM [1] [%]	inhibition at 10 µM [2] [%]	hB1R [10 μM] % Inhibition [1] [%]	rB1R [10 μM] % Inhibition [2] [%]	Molecule
103	103			Cc1cc(C)c(S(=O)(=O)N(C)CCOCC(=O)N2CCn3cccc3C2C(C)C)c(C)c1 (centres unmarked) [Example 147, N-(2-(2-(1-isopropyl-3,4-dihydropyrrolo[1,2-a]pyrazin-2(1H)-yl)-2-oxoethoxy)ethyl)-N,2,4,6-tetramethylbenzenesulfonamide]
102	101			COc1cc(C)c(S(=O)(=O)N(CCOCC(=O)N2CCn3c(CN(C)C)ccc3C2CCc2ccccc2)CC(C)C)c(C)c1C (centres unmarked) [Example 96, N-(2-(2-(6-((dimethylamino)methyl)-1-phenethyl-3,4-dihydropyrrolo[1,2-a]pyrazin-2(1H)-yl)-2-oxoethoxy)ethyl)-N-isobutyl-4-methoxy-2,3,6-trimethyl-benzenesulfonamide]
30	99			O=C(CC(NS(=O)(=O)c1ccc2ccccc2c1)c1ccccc1)N1CCn2c(CCc3cccnc3)ccc2C1 (centres unmarked) [Example 171, N-(3-Oxo-1-phenyl-3-(6-(2-(pyridin-3-yl)ethyl)-3,4-dihydropyrrolo[1,2-a]pyrazin-2(1H)-yl)propyl)naphthalene-2-sulfonamide]
99	102			COc1cc(C)c(S(=O)(=O)N(CCOCC(=O)N2CCn3c(CN4CCCC4)ccc3C2c2ccccc2)Cc2ccccc2)c(C)c1 (centres unmarked) [Example 127, N-benzyl-4-methoxy-2,6-dimethyl-N-(2-(2-oxo-2-(1-phenyl-6-(pyrrolidin-1-ylmethyl)-3,4-dihydropyrrolo[1,2-a]pyrazin-2(1H)-yl)ethoxy)ethyl)benzene-sulfonamide]
100	98			COc1cccc(C2c3cccn3CCN2C(=O)COCCN(C)S(=O)(=O)c2c(C)cc(OC)c(C)c2C)c1 (centres unmarked) [Example 89, 4-methoxy-N-(2-(2-(1-(3-methoxyphenyl)-3,4-dihydropyrrolo[1,2-a]pyrazin-2(1H)-yl)-2-oxoethoxy)ethyl)-N,2,3,6-tetramethylbenzenesulfonamide]
102	102			COc1c(C)cc(S(=O)(=O)N(C)CCOCC(=O)N2CCn3c(CN4CCOCC4)ccc3C2c2ccccc2)c(C)c1C (centres unmarked) [Example 108, 4-methoxy-N,2,3,5-tetramethyl-N-(2-(2-(6-(morpholinomethyl)-1-phenyl-3,4-dihydropyrrolo[1,2-a]pyrazin-2(1H)-yl)-2-oxoethoxy)ethyl)benzenesulfonamide]
104	103			CCCC1c2cccn2CCN1C(=O)COCCN(C)S(=O)(=O)c1c(C)cc(OC)cc1C (centres unmarked) [Example 136, 4-methoxy-N,2,6-trimethyl-N-(2-(2-oxo-2-(1-propyl-3,4-dihydropyrrolo[1,2-a]-pyrazin-2(1H)-yl)ethoxy)ethyl)benzenesulfonamide]
103	103			COc1cc(C)c(S(=O)(=O)N(C)CCOCC(=O)N2CCn3cccc3C2C(C)C)c(C)c1C (centres unmarked) [Example 153, N-(2-(2-(1-isopropyl-3,4-dihydropyrrolo[1,2-a]pyrazin-2(1H)-yl)-2-oxoethoxy)ethyl)-4-methoxy-N,2,3,6-tetramethylbenzenesulfonamide]
102	103			Cc1cc(C)c(S(=O)(=O)N(C)CCOCC(=O)N2CCn3c(CN(C)C)ccc3C2c2ccccc2)c(C)c1 (centres unmarked) [Example 139, N-(2-(2-(6-((dimethylamino)methyl)-1-phenyl-3,4-dihydropyrrolo[1,2-a]pyrazin-2(1H)-yl)-2-oxoethoxy)ethyl)-N,2,4,6-tetramethylbenzenesulfonamide]
102	101			Cc1cc(C)c(S(=O)(=O)N(C)CCOCC(=O)N2CCn3c(CN4CCCC4)ccc3C2c2ccccc2)c(C)c1 (centres unmarked) [Example 140, N,2,4,6-tetramethyl-N-(2-(2-oxo-2-(1-phenyl-6-(pyrrolidin-1-ylmethyl)-3,4-dihydropyrrolo[1,2-a]pyrazin-2(1H)-yl)ethoxy)ethyl)benzenesulfonamide]
